In patent US5770688A, “Method and composition for the treatment of mammalian HIV infection” (GSF-Forschungszentrum fur Umwelt und Gesundheit GmbH, priority 1989, dated 1998):

Key:
[1] = disappearance of melittin from culture medium / uptake by cells; assay type: in vitro ADME
From the text: This means, in essence, that the effect of melittin (Seq. ID NO:1) on the virus is to attack the virus before it is released from an infected cell although it is possible that a reduction in virus numbers may be possible during and immediately after the addition of melittin to a cell culture or otherwise. […] At this point in time, melittin is absent from the culture. […] This observation excludes any effect in the experiments to be explained by a direct effect of melittin on "cell free" virus, that is, virus released into the supernatant.
These characteristics appear to be due to the specific structure of the melittin amphiphilic helix. […] In this regard, treatment was at cultivation start, and measurement of infectivity was seven days post treatment. As was discussed earlier, maximum virus concentration in cultures of this type is not achieved for five days after cultivation. As should be understood and the conclusions which the inventors have drawn from same is that if the reduced viral infectivity seven days post treatment were only due to direct effects of melittin on the virus, then in that event, the melittin or an active fragment would have to be present as late as five days post treatment. […] Moreover, and if the reduction and supernatant infectivity was partly due to reduced virus production as opposed to incorrect virus assembly or destruction of newly synthesized virion, then, in that event, this should be reflected by reduced amounts of viral proteins within the cells and/or in their supernatants of the melittin treated cultures. To determine whether this hypothesis is correct the inventors chose the P24 marker as a marker for viral protein production. […] However, following fourteen hours of incubation with melittin, there is a marked reduction of P24 within the cells as well as in the supernatant (down to 60%).

[2] = in vitro persistence of melittin within cells
[3] = system: KE37-1 (uninfected) cells; test: MTT test, growth of non-infected cells; assay type: cell-based; details: KE37-1, seven days incubation; 10080 min
Method: The KE37-1 (uninfected) and KE37-1/111β (infected) cell lines discussed below are commercially available from the Dr. Robert Gallows Laboratory of the NIH in the United States of America and grown in a medium of RPMI 1640 (GIBCO) and further supplemented with 10% fetal calf serum which contained approximately 100 units of penicillin, 100 μg streptomycin, and approximately 0.25 μg fungizone (Amphotericin B) per milliliter. The human mesenchymal cell lines LC5 and LC5-HIV, discussed below, are deposited with the Collection De L'Institut Pasteur of Paris, France on Mar. 9, 1989 and given the accession numbers I-842 and I-843, respectively. The LC5 and LC5-HIV cell lines were grown in a medium of RPMI 1640 and supplemented with 10% fetal calf serum.
Referring more particularly to FIGS. 1-4, melittin (Seq. ID NO:1) and its specified analogues were tested for their effect on HIV-infected T-lymphoma cells. In this regard the following cell lines were employed in the testing: KE37-1 (uninfected) and KE37-1/111S (infected with HTLV-111β). These infected cells were incubated for a period of seven days under test conditions at a temperature of 37° C. and in the presence of 5% CO2. […] The optical density (OD) of the solution was determined at=600 nm. […]

Gly-Ile-Gly-Ala-Val-Leu-Lys-Val-Leu-Thr-Thr-Gly-Leu-Pro-Ala-Leu-Ile-Ser-Trp-Ile-Lys-Arg-Lys-Arg-Gln-Gln-Amide [melittin]
absorption by the cell ([1]; after introduction to the culture): absorbed by the cell within hours after introduction to the culture | half-life of melittin ([1]; cell culture): 19 h | melittin in the medium ([1]; two hours after addition to the culture): not measurable in the medium two hours after addition to the culture | time detectable in tact within the cells [2]: more than 48 hours | concentration toxic to non-infected cells [3]: above 5 μg per ml
